Experimental data from patent US9120805B2, “Substituted pyrrolo[1,2-A]pyrazin-1-ones and pyrazolo[1,5-A]pyrazin-4-ones as inhibitors of tankyrase and poly(ADP-ribose)polymerase activity” (Merck Patent GmbH, priority 2012, dated 2015).

Tests used:
[1] = biological target: T1, GST-tagged Tankyrase-1 (1023-1327 aa) (Homo sapiens, UniProt O95271); assay: Tankyrase 1 autoparsylation assay (HTRF enzyme assay); type: biochemical
T1 construct: GST-tagged Tankyrase-1 (1023-1327 aa)
Experimental: (§1) Biochemical Activity Testing of Tankyrase 1 and 2: Autoparsylation Assay
(§2) The autoparsylation assay is run in two steps: the enzymatic reaction in which GST-tagged Tankyrase-1, resp Tankyrase-2 transferred biotinylated ADP-ribose to itself from biotinylated NAD as co-substrate and the detection reaction where a time resolved FRET between cryptate labelled anti-GST bound to the GST tag of the enzyme and Xlent® labelled-streptavidin bound the biotin-parsylation residue is analysed. The autoparsylation activity was detectable directly via the increase in HTRF signal.
(§3) The autoparsylation assay is performed as 384-well HTRF® (Cisbio, Codolet, France) assay format in Greiner low volume nb 384-well microtiter plates and is used for high throughput screen. 250 nM GST-tagged Tankyrase-1 (1023-1327 aa), respectively about 250 nM GST-tagged Tankyrase-2 (873-1166 aa) and 5 μM bio-NAD (Biolog, Life science Inst., Bremen, Germany) as co-substrate are incubated in a total volume of 5 μl (50 mM HEPES, 4 mM Mg-chloride, 0.05% Pluronic F-68, 1.4 mM DTT, 0.5% DMSO, pH 7.7) in the absence or presence of the test compound (10 dilution concentrations) for 90 min at 30° C. The reaction is stopped by the addition of 1 μl 50 mM EDTA solution. 2 μl of the detection solution (1.6 μM SA-Xlent® (Cisbio, Codolet, France), 7.4 nM Anti-GST-K® (Eu-labelled anti-GST, Cisbio, Codolet, France) in 50 mM HEPES, 800 mM KF, 0.1% BSA, 20 mM EDTA, 0.1% CHAPS, pH 7.0) are added. After 1 h incubation at room temperature the HTRF is measured with an Envision multimode reader (Perkin Elmer LAS Germany GmbH) at excitation wavelength 340 nm (laser mode) and emission wavelengths 615 nm and 665 nm. The ratio of the emission signals is determined. The full value used is the inhibitor-free reaction. The pharmacological zero value used is XAV-939 (Tocris) in a final concentration of 5 μM. The inhibitory values (IC50) are determined using either the program Symyx Assay Explorer® or Condosseo® from GeneData.

[2] = biological target: T2, GST-tagged Tnks-1 (1023-1327 aa) (Homo sapiens, UniProt O95271); assay: TNKS1 activity ELISA (autoparsylation assay); type: biochemical
T2 construct: GST-tagged Tnks-1 (1023-1327 aa, prepared in-house); made in house
Experimental: (§4) Description of the TNKS1 and TNKS2 ELISA Assay
(§5) Biochemical Activity Testing of TNKS 1 and 2: Activity ELISA (Autoparsylation Assay)
(§6) For analysis of autoparsylation activity of TNKS 1 and 2 an activity ELISA is performed: In the first step GST tagged TNKS is captured on a Glutathione coated plate. Then the activity assay with biotinylated NAD is performed in the absence/presence of the compounds. During the enzymatic reaction GST tagged TNKS transfers biotinylated ADP-ribose to itself from biotinylated NAD as co-substrate. For the detection streptavidin-HRP conjugate is added that binds to the biotinylated TNKS and is thereby captured to the plates. The amount of biotinylated resp. autoparsylated TNKS is detected with a luminescence substrate for HRP. The level of the luminescence signal correlates directly with the amount of autoparsylated TNKS and therefore with activity of TNKS.
(§7) The activity ELISA is performed in 384 well Glutathione coated microtiter plates (Express capture Glutathione coated plate, Biocat, Heidelberg, Germany). The plates are pre-equilibrated with PBS. Then the plates are incubated with 50 μl 20 ng/well GST-tagged Tnks-1 (1023-1327 aa, prepared in-house), respectively GST-tagged Tnks-2 (873-1166 aa, prepared in-house) in assay buffer (50 mM HEPES, 4 mM Mg-chloride, 0.05% Pluronic F-68, 2 mM DTT, pH 7.7) overnight at 4° C. The plates are washed 3 times with PBS-Tween-20. The wells are blocked by incubation at room temperature for 20 minutes with 50 μl blocking buffer (PBS, 0.05% Tween-20, 0.5% BSA). Afterwards the plates are washed 3 times with PBS-Tween-20. The enzymatic reaction is performed in 50 μl reaction solution (50 mM HEPES, 4 mM Mg-chloride, 0.05% Pluronic F-68, 1.4 mM DTT, 0.5% DMSO, pH 7.7) with 10 μM bio-NAD (Biolog, Life science Inst., Bremen, Germany) as co-substrate in the absence or presence of the test compound (10 dilution concentrations) for 1 hour at 30° C. The reaction is stopped by 3 times washing with PBS-Tween-20. For the detection 50 μl of 20 ng/μl Streptavidin, HRP conjugate (MoBiTec, Göttingen, Germany) in PBS/0.05% Tween-20/0.01% BSA are added and the plates are incubated for 30 minutes at room temperature. After three times washing with PBS-Tween-20 50 μl of SuperSignal ELISA Femto Maximum sensitivity substrate solution (ThermoFisherScientific (Pierce), Bonn, Germany) are added. Following a 1 minute incubation at room temperature luminescence signals are measured with an Envision multimode reader (Perkin Elmer LAS Germany GmbH) at 700 nm. The full value used is the inhibitor-free reaction. The pharmacological zero value used is XAV-939 (Tocris) in a final concentration of 5 μM. The inhibitory values (1050) are determined using either the program Symyx Assay Explorer® or Condosseo® from GeneData.

[3] = biological target: T3, GST-tagged Tankyrase-2 (873-1166 aa) (Homo sapiens, UniProt Q9H2K2); assay: Tankyrase 2 autoparsylation assay (HTRF enzyme assay); type: biochemical
T3 construct: GST-tagged Tankyrase-2 (873-1166 aa)
Experimental: as §1, §2, §3

[4] = biological target: T4, GST-tagged Tnks-2 (873-1166 aa) (Homo sapiens, UniProt Q9H2K2); assay: TNKS2 activity ELISA (autoparsylation assay); type: biochemical
T4 construct: GST-tagged Tnks-2 (873-1166 aa, prepared in-house); made in house
Experimental: as §4, §5, §6, §7

tankyrase 1/2 = assay: Cellular inhibition of Tankyrase: increase of Axin2 level in DLD1 cells (Luminex); type: cell-based; conditions: 24 hours, read-out: EC50 tankyrase 1/2 (cell assay)
Experimental: Measurement of Cellular Inhibition of Tankyrase
Since Tankyrases have been described to modulate cellular level of Axin2 (Huang et al., 2009; Nature) the increase of Axin2 level is used as read-out for determination of cellular inhibition of Tankyrases in a Luminex based assay.
Cells of the colon carcinoma cell line DLD1 are plated in 96 well plates with 1.5×10^4 cells per well. Next day, cells are treated with a serial dilution of test compound in seven steps as triplicates with a final DMSO concentration of 0.3%. After 24 hours, cells are lysed in lysis buffer (20 mM Tris/HCl pH 8.0, 150 mM NaCl, 1% NP40, 10% Glycerol) and lysates are cleared by centrifugation through a 96 well filter plate (0.65 μm). Axin2 protein is isolated from cell lysates by incubation with a monoclonal anti-Axin2 antibody (R&D Systems #MAB6078) that is bound to fluorescent carboxybeads. Then, bound Axin2 is specifically detected with a polyclonal anti-Axin2 antibody (Cell Signaling #2151) and an appropriate PE-fluorescent secondary antibody. The amount of isolated Axin2 protein is determined in a Luminex^200 machine (Luminex Corporation) according to the manufacturer's instruction by counting 100 events per well. Inhibition of Tankyrase by test compounds results in higher levels of Axin2 which directly correlates with an increase of detectable fluorescence. As controls cells are treated with solvent alone (neutral control) and with a Tankyrase reference inhibitor IWR-2 (3E-06 M) which refers as control for maximum increase of Axin2. For analysis, the obtained data are normalized against the untreated solvent control and fitted for determination of the EC50 values using the Assay Explorer software (Accelrys).

His-tagged Parp-1 = biological target: T5, His-tagged Parp-1 (Homo sapiens, UniProt P09874); assay: PARP-1 autoparsylation assay (HTRF); type: biochemical; conditions: PARP-1 autoparsylation HTRF assay
T5 construct: purchased Enzo Life Sciences GmbH
From the text: Description of the PARP1 Assay
Biochemical Activity Testing of PARP-1: Autoparsylation Assay
The autoparsylation assay is run in two steps: the enzymatic reaction in which
His-tagged Parp-1 transfers biotinylated ADP-ribose/ADP-ribose to itself from biotinylated NAD/NAD as co-substrate and the detection reaction where a time resolved FRET between cryptate labelled anti-His antibody bound to the His tag of the enzyme and Xlent® labelled-streptavidin bound the biotin-parsylation residue is analysed. The autoparsylation activity is detectable directly via the increase in HTRF signal.
The autoparsylation assay is performed as 384-well HTRF® (Cisbio, Codolet, France) assay format in Greiner low volume nb 384-well microtiter plates. 35 nM His-tagged Parp-1 (human, recombinant, Enzo Life Sciences GmbH, Lörrach, Germany) and a mixture of 125 nM bio-NAD (Biolog, Life science Inst., Bremen, Germany) and 800 nM NAD as co-substrate are incubated in a total volume of 6 μl (100 mM Tris/HCl, 4 mM Mg-chloride, 0.01% IGEPAL® CA630, 1 mM DTT, 0.5% DMSO, pH 8, 13 ng/μl activated DNA (BPS Bioscience, San Diego, US)) in the absence or presence of the test compound (10 dilution concentrations) for 150 min at 23° C. The reaction is stopped by the addition of 4 μl of the Stop/detection solution (70 nM SA-Xlent® (Cisbio, Codolet, France), 2.5 nM Anti-His-K® (Eu-labelled anti-His, Cisbio, Codolet, France) in 50 mM HEPES, 400 mM KF, 0.1% BSA, 20 mM EDTA, pH 7.0). After 1 h incubation at room temperature the HTRF is measured with an Envision multimode reader (Perkin Elmer LAS Germany GmbH) at excitation wavelength 340 nm (laser mode) and emission wavelengths 615 nm and 665 nm. The ratio of the emission signals is determined. The full value used is the inhibitor-free reaction. The pharmacological zero value used is Olaparib (LClabs, Woburn, US) in a final concentration of 1 μM. The inhibitory values (IC50) are determined using either the program Symyx Assay Explorer® or Condosseo® from GeneData.

T2 sequence (O95271 1023-1327): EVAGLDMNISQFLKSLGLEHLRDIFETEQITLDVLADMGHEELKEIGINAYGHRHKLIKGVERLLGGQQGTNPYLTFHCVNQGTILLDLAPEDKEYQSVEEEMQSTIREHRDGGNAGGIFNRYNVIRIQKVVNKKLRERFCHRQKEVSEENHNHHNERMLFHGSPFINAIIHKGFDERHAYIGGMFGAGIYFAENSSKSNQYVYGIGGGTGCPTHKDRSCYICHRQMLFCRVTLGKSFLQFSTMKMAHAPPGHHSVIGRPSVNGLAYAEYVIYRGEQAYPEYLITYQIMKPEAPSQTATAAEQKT
T1 sequence (O95271 1023-1327): as above
T5 sequence (P09874 whole entry): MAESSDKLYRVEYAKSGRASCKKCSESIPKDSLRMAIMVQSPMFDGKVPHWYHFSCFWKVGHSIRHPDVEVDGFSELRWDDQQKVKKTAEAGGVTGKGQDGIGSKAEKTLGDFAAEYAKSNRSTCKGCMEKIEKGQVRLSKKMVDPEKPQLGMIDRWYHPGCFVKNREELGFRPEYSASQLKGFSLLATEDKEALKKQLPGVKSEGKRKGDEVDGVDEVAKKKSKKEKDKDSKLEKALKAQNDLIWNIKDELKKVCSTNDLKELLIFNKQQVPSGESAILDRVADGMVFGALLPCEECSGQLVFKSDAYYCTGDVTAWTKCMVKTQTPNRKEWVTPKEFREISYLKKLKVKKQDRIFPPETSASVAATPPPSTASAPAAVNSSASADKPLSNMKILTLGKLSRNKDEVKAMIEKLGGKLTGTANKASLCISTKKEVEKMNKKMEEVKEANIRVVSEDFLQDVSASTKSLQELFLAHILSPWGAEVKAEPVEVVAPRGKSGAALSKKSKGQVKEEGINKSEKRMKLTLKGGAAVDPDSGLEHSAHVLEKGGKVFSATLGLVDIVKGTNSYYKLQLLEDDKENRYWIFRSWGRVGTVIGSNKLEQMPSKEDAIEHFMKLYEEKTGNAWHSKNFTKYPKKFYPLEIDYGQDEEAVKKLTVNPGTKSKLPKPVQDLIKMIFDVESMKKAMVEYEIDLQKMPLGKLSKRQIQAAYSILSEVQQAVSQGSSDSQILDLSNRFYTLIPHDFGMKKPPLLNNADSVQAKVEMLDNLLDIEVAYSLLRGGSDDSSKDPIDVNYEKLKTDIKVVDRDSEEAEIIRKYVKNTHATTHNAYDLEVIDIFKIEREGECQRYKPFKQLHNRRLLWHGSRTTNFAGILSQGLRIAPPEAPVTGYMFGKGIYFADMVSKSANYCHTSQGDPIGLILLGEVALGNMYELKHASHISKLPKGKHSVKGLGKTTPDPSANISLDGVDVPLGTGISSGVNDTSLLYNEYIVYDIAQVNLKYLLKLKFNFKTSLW
T3 sequence (Q9H2K2 873-1166): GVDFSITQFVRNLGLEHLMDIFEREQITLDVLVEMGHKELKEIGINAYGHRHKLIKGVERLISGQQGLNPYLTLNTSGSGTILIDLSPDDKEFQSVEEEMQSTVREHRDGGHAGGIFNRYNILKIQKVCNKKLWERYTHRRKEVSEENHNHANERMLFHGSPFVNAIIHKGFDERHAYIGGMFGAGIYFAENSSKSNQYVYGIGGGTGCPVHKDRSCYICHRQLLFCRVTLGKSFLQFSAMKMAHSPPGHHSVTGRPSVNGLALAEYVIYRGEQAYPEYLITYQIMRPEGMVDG
T4 sequence (Q9H2K2 873-1166): as above

SMILES | IC50 [1] [nM] | IC50 [2] [nM] | IC50 [3] [nM] | IC50 [4] [nM] | EC50 (tankyrase 1/2) [nM] | IC50 (His-tagged Parp-1) [nM]
CC(C)(C)c1ccc(-c2cn3nccc3c(=O)[nH]2)cc1 [Compound A15, 6-(4-tert-butyl-phenyl)-5H-pyrazolo[1,5-a]pyrazin-4-one] | < 300 | < 300 | < 300 | < 300 | < 300 | –
CC(C)(C)c1ccc(-c2cn3nc(CO)cc3c(=O)[nH]2)cc1 [Compound A18, 6-(4-tert-butyl-phenyl)-2-hydroxymethyl-5H-pyrazolo[1,5-a]pyrazin-4-one] | < 300 | < 300 | 300 to 3000 | < 300 | 300 to 3000 | –
Cc1cc2c(=O)[nH]c(-c3ccc(N4CCCC4)cc3)cn2n1 [Compound A37, 2-methyl-6-(4-pyrrolidin-1-yl-phenyl)-5H-pyrazolo[1,5-a]pyrazin-4-one] | < 300 | < 300 | 300 to 3000 | – | 300 to 3000 | –
Cc1cc2c(=O)[nH]c(-c3ccc(C(C)(C)C)cc3)cn2c1 [Compound A38, 3-(4-tert-butyl-phenyl)-7-methyl-2H-pyrrolo[1,2-a]pyrazin-1-one] | – | < 300 | – | < 300 | < 300 | –
Cc1cc2c(=O)[nH]c(-c3cnn(C(C)(C)C)c3)cn2c1 [Compound A57, 3-(1-tert-butyl-1H-pyrazol-4-yl)-7-methyl-2H-pyrrolo[1,2-a]pyrazin-1-one] | 300 to 3000 | < 300 | 300 to 3000 | 300 to 3000 | – | 300 to 3000
CN1CCC(c2ccc(-c3cn4cc(F)cc4c(=O)[nH]3)cc2)CC1 [Compound A81, 7-fluoro-3-[4-(1-methyl-piperidin-4-yl)-phenyl]-2H-pyrrolo[1,2-a]pyrazin-1-one] | < 300 | < 300 | 300 to 3000 | < 300 | 300 to 3000 | –
CC(C)(O)c1ccc(-c2cn3c(F)c(F)cc3c(=O)[nH]2)cc1 [Compound A83, 6,7-difluoro-3-[4-(1-hydroxy-1-methyl-ethyl)-phenyl]-2H-pyrrolo[1,2-a]pyrazin-1-one] | – | < 300 | – | < 300 | – | < 300
CC(C)(O)c1ccc(-c2cn3c(F)ccc3c(=O)[nH]2)cc1 [Compound A84, 6-fluoro-3-[4-(1-hydroxy-1-methyl-ethyl)-phenyl]-2H-pyrrolo[1,2-a]pyrazin-1-one] | – | < 300 | – | < 300 | – | 300 to 3000
O=c1[nH]c(-c2ccc(C3(O)CCCC3)cc2)cn2cc(F)cc12 [Compound A85, 7-fluoro-3-[4-(1-hydroxy-cyclopentyl)-phenyl]-2H-pyrrolo[1,2-a]pyrazin-1-one] | – | < 300 | – | < 300 | – | 300 to 3000
CC(C)(C)c1ccc(-c2cn3cc(C#N)cc3c(=O)[nH]2)cc1 [Compound A92, 3-(4-tert-butyl-phenyl)-1-oxo-1,2-dihydro-pyrrolo[1,2-a]pyrazine-7-carbonitrile] | < 300 | < 300 | 300 to 3000 | < 300 | 3000 to 50000 | –
Cc1ccc2c(=O)[nH]c(-c3ccc(C(C)(C)O)cc3)cn12 [Compound A95] | – | – | – | < 300 | < 300 | –
O=c1[nH]c(-c2ccc(C3(O)COC3)cc2)cn2cccc12 [Compound A110] | < 300 | < 300 | 300 to 3000 | < 300 | 300 to 3000 | –
